Reference: patent US11974990B2, “TXNIP-TRX complex inhibitors and methods of using the same” (City of Hope, priority 2018, dated 2024)
“Also recorded” adds a separate entry of the source.

Legend:
[1] = biological target: T1, TXNIP-TRX complex (Homo sapiens, UniProt Q9H3M7); assay: Co-IP using extracts from high glucose treated THP1 cells in the presence of compounds; assay type: biochemical; conditions: extracts of THP1 cells treated with 25 mM glucose 3 days; compounds added to extract (5 uM)
T1 construct: Co-immunoprecipitation (Co-IP) of TXNIP with TRX in THP 1 monocytes cells treated with compounds under high glucose condition; endogenous in cells; host or cells: THP1 human monocytes cultured in 25 mM glucose
T1 sequence (Q9H3M7 1-391): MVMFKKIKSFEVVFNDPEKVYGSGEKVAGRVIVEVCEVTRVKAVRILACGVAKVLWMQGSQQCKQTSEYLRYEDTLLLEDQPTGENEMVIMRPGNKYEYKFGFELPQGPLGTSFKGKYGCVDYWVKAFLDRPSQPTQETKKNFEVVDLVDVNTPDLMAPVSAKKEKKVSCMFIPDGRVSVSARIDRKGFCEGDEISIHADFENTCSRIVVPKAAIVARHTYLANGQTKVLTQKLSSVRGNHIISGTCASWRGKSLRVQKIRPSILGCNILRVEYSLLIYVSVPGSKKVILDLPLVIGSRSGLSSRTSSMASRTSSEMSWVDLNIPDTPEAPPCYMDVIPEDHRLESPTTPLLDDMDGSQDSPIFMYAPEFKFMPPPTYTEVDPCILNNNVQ
Experimental: Assay 2: Co-IP using extracts from THP 1 cells treated high glucose and in the presence of compounds. In this assay, TXNIP is already highly expressed (because the cells are treated with HG), we assume there is high concentration of TXNIP/TRX complexes in the cell extract. Co-IPs were done in these extracts through adding TRX antibody and compounds. If a compound is able to break the (pre-formed) TXNIP/TRX complex, there will be a reduced signal (band intensity) in the assay.
Co-IP with THP1 high glucose treated extract in the presence of the compounds. THP1 cells were treated with 25 mM glucose for 3 days, the cell extract were prepared. Them 300 ul extract were used for TP. Compounds were added to 5 uM Co-IP were followed according to the Co-IP protocol.
1. Transfer the cultured cells from the culture dish to a 15-mL conical tube. 2. Centrifuge at 500×g for 2 min at 4° C. and remove the supernatant. 3. Wash with ice-cold PBS and centrifuge at 500×g for 2 min at 4° C. Remove the supernatant. 4. Repeat Step 3 twice.
5. Resuspend the cell pellet in ice-cold cell lysis buffer (1 mL per 1×10^7 cells) and incubate on ice for 10 min. 6. […]
Note: Pre-clearing the lysate is recommended to reduce the non-specific binding. However, if the protein is detected by western blotting, pre-clearing may not be necessary unless a contaminating protein is interfering with visualization of the protein of interest. […]

[2] = test system: TNF-α mRNA; assay: TNF-α mRNA expression (RT-PCR) in murine MIN6 pancreatic beta cells; assay type: cell-based; conditions: 25 mM glucose, 72 h (FIG. 11 right)
Experimental: FIG. 11. […] MIN6 cells were cultured in 25 mM glucose with C1 at uM concentrations for 72 h. Total RNA was prepared. RT-PCR was performed. Data shown are the mean+SEM from triplicates. Statistical analysis was performed for each column vs. HG DMSO using one-way ANOVA: *<0.0001.
(§1) RNA extraction and quantitative RT-PCR. RNA was extracted using the Direct-zol™ RNA MiniPrep Plus (Zymo Research). Reverse transcription of RNA samples into cDNA was performed using the GeneAmp RNA PCR Kit (Applied Biosystems), dNTP (from Roche Applied Science), Rnase inhibitor, MULV Reverse Transcriptase and Random hexamers reagent (all from Invitrogen). Diluted cDNA was quantified using real-time PCR performed with Power SYBR Green qPCR MasterMix (Applied Biosystem) and 7500 real-time PCR system (Applied Biosystems). The HPRT1 gene was used as an internal control.

[3] = test system: TNF-α mRNA; assay: TNF-α mRNA expression (RT-PCR) in human 1.1B4 pancreatic β cells; assay type: cell-based; conditions: 1.1B4 β cells, 25 mM glucose, 72 h (FIG. 12 right)
Experimental: FIG. 12. […] Human 1.1B4 β cells were cultured in 25 mM glucose with C1 (uM) for 72 h. Total RNA was prepared. RT-PCR was performed. Data shown are the mean+SEM from triplicates. Statistical analysis was performed for each column vs. HG DMSO using one-way ANOVA: *<0.0001.
as §1

[4] = test system: TXNIP mRNA; assay: TXNIP mRNA expression (RT-PCR) in primary human pancreatic islets; assay type: cell-based; conditions: human pancreatic islets (500 IEQ), 25 mM glucose, 48 h (FIG. 18)
Experimental: FIG. 18. […] Human pancreatic islets (500 IEQ) were cultured with PIM(R) (Prodo Labs) in 25 mM glucose with C1 as indicated for 48 h. Total RNA was collected. RT-PCR was performed in triplicate and data shown are the mean+SEM. Statistical analysis was performed using one-way ANOVA: *<0.0001.
as §1

Structure (SMILES): CC(C)C(C(=O)O)N1C(=O)c2ccncc2C1=O (stereo not shown) [Compound C1, 2-(1,3-dioxo-1,3-dihydro-2H-pyrrolo[3,4-c]pyridin-2-yl)-3-methylbutanoic acid]
- effect on pre-formed TXNIP/TRX complex (co-IP band intensity) [1]: inhibit high glucose-induced TXNIP-TRX co-immunoprecipitation in cell extracts; also recorded: reproducibly can affect TXNIP/TRX complex
- TNF-α mRNA levels [2]: did not decrease TNF-α levels
- TNF-α mRNA expression [3]: affects TXNIP and TNF-α mRNA expression; also recorded: decreased TNF-α expression
- TXNIP mRNA [4]: targets TXNIP mRNA; also recorded: efficiently inhibited TXNIP mRNA
